Columns and labels:
[1] = system: spontaneously hypertensive rat (SHR); assay: Arterial pressure in spontaneously hypertensive rat (SHR) model with established hypertension after epidural RTX; format: in vivo
Protocol: Open circles indicate the control population, while filled circles indicate the RTX-treated population. Epidural administration of RTX was by injection on Day 0, as indicated by the arrow on the graph.
The hypertensive model is a genetic spontaneously hypertensive rat (SHR). The early hypertension rats were treated at 8 weeks at age, reflecting a population in which blood pressure was only minimally elevated at the beginning of the study. Examples 10 and 11 illustrate treatment of subjects with hypertension and pre-hypertension (i.e., mild hypertension or early hypertension) and without induced CHF. For these subjects, epidural administration of RTX may be associated with an absolute reduction in blood pressure. Additionally, subjects treated with RTX may show less increase in blood pressure over time, as compared to a control population. Or, treatment may be associated with both an absolute reduction in pressure and lessened increase over time.
FIG. 14A-14C show further experimental results in a study using an (SHR) model. […] The established hypertensive rats were treated at 16 weeks at age, reflecting a population in which blood pressure was elevated at the beginning of the RTX administration. Open circles indicate the control population, while filled circles indicate the RTX-treated population. Epidural administration of RTX was by injection on Day 0, as indicated by the arrow on each graph. […] These subjects were not treated to induce myocardial infarction. The data allowed for comparison of SHR rats provided injection of the vehicle only (n=7) to those treated by injection of both vehicle and RTX (n=7).

[2] = system: C fiber afferents; assay: Staining of the dorsal horn of the spinal cord at T2 for TRPV1, Substance P and IB4; format: in vivo, rat
Protocol: (§1) For epidural application of RTX, a small midline incision was made in the region of the T13-L1 thoracic vertebrae. Following dissection of the superficial muscles, two small holes (approximately 2 mm by 2 mm) were made in the left and right sides of the T13 vertebra. A polyethylene catheter (PE-10) was inserted into the […] via the left hole and gently advanced about 5.5-6 cm to the left T1 level at which the first injection (6 μg/mL, 10 μL) was made at a very slow speed to minimize the diffusion of RTX. Then the catheter was pulled back about 0.5 cm to left T2, T3, and T4, respectively, to perform serial injections (10 μL each) in each segment. Then the catheter was withdrawn and the same injection was repeated on the right side. A silicone gel was used to seal the hole in the T13 vertebra. The skin overlying the muscle was closed with a 3-0 polypropylene suture. Simple interrupted sutures were used to close the skin.
Neurons in the dorsal horn of the spinal cord that express SP were ablated by RTX. IB4 is an indicator of small diameter afferent nerves and SP is an indicator of neuroinflammation.

[3] = system: rats with induced chronic heart failure (CHF); assay: Cardiac function in rats with induced chronic heart failure; format: in vivo, Sprague-Dawley rats
Protocol: Both significance measures were at the P<0.05 level.
(§2) The following Examples 1 through 9 discuss data from rats with induced CHF. The Examples show many improved indicators associated with RTX treatment in CHF subjects. The rat models provide for comparison of epidural administration of RTX against epicardial administration of RTX and against various controls. For the epicardial data, RTX was administered directly to the epicardium by swab during open surgery contemporaneously with induced myocardial infarction (coronary artery ligation).
as §1
The experimental data included: body weight, heart weight, the ratio of heart weight to body weight (HW/BW), the ratio of wet lung weight to body weight (WLW/BW), the left ventricle end systolic pressure (LVESP), the left ventricle end diastolic pressure (LVEDP), maximum first derivative of left ventricular pressure (dp/dtmax), the minimum first derivative of left ventricular pressure (dp/dtmin), and infarct size. […] Both significance measures were at the P<0.05 level. […] The columns titled “Sham+vehicle” and “Sham+RTX” provide a comparison for sham rats without induced chronic heart failure, and without and with, respectively, epidural RTX treatment.
The experimental data included: body weight, heart weight, the ratio of heart weight to body weight (HW/BW), the ratio of wet lung weight to body weight (WLW/BW), mean arterial pressure (MAP), the left ventricle end diastolic pressure (LVEDP), heart rate, the maximum first derivative of left ventricular pressure (dp/dtmax), the minimum first derivative of left ventricular pressure (dp/dtmin), and infarct size. […] Both significance measures were at the P<0.05 level.

[4] = system: TRPV1 afferents; assay: Immunofluorescence study for TRPV1 afferents after L2-L5 RTX administration; format: in vivo, rat
From the text: Additionally, an immunofluorescence study for TRPV1 afferents was made following administration at the L2-L5 levels. […] Within the T1-T5 levels, no reduction in TRPV1 afferents was shown following the L2-L5 injection. Within the heart, TRPV1 fluorescence remained on the surfaces of the myocardium and within the cardiac tissue.

[5] = system: hypertensive rat; details: in vivo
[6] = system: rats with induced CHF; assay: Long-term survival of rats with induced CHF over 28 weeks; format: in vivo, rat
Protocol: as §2, §1
FIG. 7 depicts the survival rate of rats with induced chronic heart failure with and without RTX treatment. In FIG. 7A, the treatment was epicardial. In FIG. 7B the treatment was epidural. […] In particular, without RTX treatment, seven of ten rats died during the 28-week period. But only two of nine rats with RTX treatment died during the same period.

[7] = established SHR, maintained throughout the study
[8] = epidural RTX at T1-T4 DRG levels
[9] = CHF + epidural RTX vs CHF + vehicle, P<0.05

SMILES: C=C(C)[C@]12C[C@@H](C)[C@@]34O[C@](Cc5ccccc5)(O[C@@H]1[C@@H]3C=C(COC(=O)Cc1ccc(O)c(OC)c1)C[C@]1(O)C(=O)C(C)=C[C@@H]41)O2 [RTX, resiniferatoxin]
- day from which MAP reduction was significant vs vehicle-only ([1]; established SHR): ~8 days
- day from which diastolic arterial pressure differed significantly from vehicle-only ([1]; established SHR): ~8 days
- day from which systolic arterial pressure differed significantly from vehicle-only ([1]; established SHR): ~7 days
- mean arterial pressure (MAP) vs pre-injection baseline ([1]; established SHR, epidural RTX, observed throughout 55-day period): some reduction
- diastolic arterial pressure vs pre-injection baseline [1, 7]: decrease
- systolic arterial pressure vs pre-injection baseline [1, 7]: decrease
- MAP following treatment ([1]; established hypertensive rats): 125-130 mmHg
- expression of TRPV1 protein ([2]; dorsal horn at T2, RTX vs control, FIG. 4): reduced expression
- ablation of SP-containing C fiber afferents (peptidergic) projecting to the dorsal horn [2, 8]: ablated almost all
- ablation of isolectin B4 (IB4)-positive C fiber afferents (non-peptidergic) projecting to the dorsal horn [2, 8]: a large portion
- left ventricle end diastolic pressure, increase over sham ([3]; CHF + epidural RTX (CHF + vehicle: 380%)): 60%
- infarct size, difference ([3]; CHF + epidural RTX vs CHF + vehicle): not being statistically significant
- heart weight [3, 9]: statistically significantly better
- heart weight as a percentage of body weight [3, 9]: statistically significantly better
- left ventricle end diastolic pressure [3, 9]: statistically significantly better
- minimum first derivative of left ventricular pressure (dp/dtmin) [3, 9]: statistically significantly better
- wet lung weight as a percentage of body weight [3, 9]: statistically significantly better
- cardiac function results, epidural versus epicardial administration ([3]; FIG. 5 column D vs FIG. 6 column H): comparable to the results achieved by epicardial administration, or are in some cases better
- TRPV1 afferents in DRG neurons, L2-L5 levels [4]: elimination of most TRPV1 afferents
- TRPV1 afferents, L1 level [4]: many TRPV1 afferents remained
- TRPV1 afferents, T1-T5 levels [4]: no reduction
- TRPV1 fluorescence in the heart (surfaces of the myocardium and cardiac tissue) [4]: remained
- ABP, MAP and heart rate following injection [5]: substantial short term increases
- average short-term increase in MAP over baseline [5]: about 30 mmHg
- duration of transient increase in blood pressure, heart rate, or both [5]: about five or ten
- survival improvement, epidural versus epicardial treatment ([6]; 28 weeks): roughly comparable improvement
- rats that died during the 28-week period ([6]; epidural RTX at T1-T4, n=9 (without RTX seven of ten)): two of nine
- long-term survival rate ([6]; epidural RTX vs no RTX, 28 weeks): significantly higher
